Test results published in patent US20260232767A1, “INTERLEUKIN-23 RECEPTOR ANTAGONIST PEPTIDES FOR USE IN THE TREATMENT OF PSORIASIS” (Janssen Pharmaceutica NV, priority 2023, published 2026).

System: subjects with moderate-to-severe plaque psoriasis
Test: Safety, adverse events, Example 2 through Week 56
Type: in vivo, human
Excerpt: The LTE safety analysis was based on randomized participants in Example who entered the present long-term extension study and received at least one dose of study intervention (including a partial dose) during the study period.

[1] = Placebo → 100 mg QD after crossover, through Week 56
[2] = Placebo → 100 mg QD, Week 16 through Week 56
[3] = Placebo → 100 mg QD, LTE Safety analysis set

CC(=O)NCCCC[C@@H]1NC(=O)[C@H](Cc2c[nH]c3c(C)cccc23)NC(=O)[C@H]([C@@H](C)O)NC(=O)[C@H](CC(N)=O)NC(=O)[C@@H](NC(C)=O)C(C)(C)SSC(C)(C)[C@@H](C(=O)N[C@@H](Cc2ccc(OCCN)cc2)C(=O)N[C@@H](Cc2ccc3ccccc3c2)C(=O)NC2(C(=O)N[C@@H](CCC(=O)O)C(=O)N[C@@H](CC(N)=O)C(=O)N[C@@H](Cc3cccnc3)C(=O)N(C)CC(N)=O)CCOCC2)NC1=O [IL-23 receptor antagonist peptide, Ac-[Pen]*-N-T-[W(7-Me)]-[Lys(Ac)]-[Pen]*-Phe[4-(2-aminoethoxy)]-[2-Nal]-[THP]-E-N-[3-Pal]-Sarc-NH2 (*[Pen]-[Pen]* formdisulfidebond)]
Seasonal allergy: number of subjects (Combined, through Week 56): 2 | Skin and subcutaneous tissue disorders: % of subjects (Combined, through Week 56): (6.5%) | Skin and subcutaneous tissue disorders: number of subjects (Combined, through Week 56): 16 | Skin laceration: % of subjects (Combined, through Week 56): (0.4%) | Skin laceration: number of subjects (Combined, through Week 56): 1 | Skin papilloma: % of subjects (Combined, through Week 56): (0.8%) | Skin papilloma: number of subjects (Combined, through Week 56): 2 | Social circumstances: % of subjects (Combined, through Week 56): (0.4%) | Social circumstances: number of subjects (Combined, through Week 56): 1 | Steatohepatitis: % of subjects (Combined, through Week 56): (0.4%) | Steatohepatitis: number of subjects (Combined, through Week 56): 1 | Suicide attempt: % of subjects (Combined, through Week 56): (0.4%) | Suicide attempt: number of subjects (Combined, through Week 56): 1 | Sunburn: % of subjects (Combined, through Week 56): (0.4%) | Sunburn: number of subjects (Combined, through Week 56): 1 | Thrombocytopenia: % of subjects (Combined, through Week 56): (0.4%) | Thrombocytopenia: number of subjects (Combined, through Week 56): 1 | Thrombocytosis: % of subjects (Combined, through Week 56): (0.4%) | Thrombocytosis: number of subjects (Combined, through Week 56): 1 | Tonsillar hypertrophy: % of subjects (Combined, through Week 56): (0.4%) | Tonsillar hypertrophy: number of subjects (Combined, through Week 56): 1 | Tooth fracture: % of subjects (Combined, through Week 56): (0.4%) | Tooth fracture: number of subjects (Combined, through Week 56): 1 | Type 2 diabetes mellitus: % of subjects (Combined, through Week 56): (0.4%) | Type 2 diabetes mellitus: number of subjects (Combined, through Week 56): 1 | Urinary tract disorder: % of subjects (Combined, through Week 56): (0.4%) | Urinary tract disorder: number of subjects (Combined, through Week 56): 1 | Uterine leiomyoma: % of subjects (Combined, through Week 56): (0.4%) | Uterine leiomyoma: number of subjects (Combined, through Week 56): 1 | Vascular disorders: % of subjects (Combined, through Week 56): (2.8%) | Vascular disorders: number of subjects (Combined, through Week 56): 7 | Ventricular dysfunction: % of subjects (Combined, through Week 56): (0.4%) | Ventricular dysfunction: number of subjects (Combined, through Week 56): 1 | Vertigo: % of subjects (Combined, through Week 56): (0.8%) | Vertigo: number of subjects (Combined, through Week 56): 2 | Vitamin D deficiency: % of subjects (Combined, through Week 56): (0.4%) | Vitamin D deficiency: number of subjects (Combined, through Week 56): 1 | Deaths (LTE study period): no deaths | Subjects with 1 or more treatment-emergent adverse events leading to discontinuation of study agent [1]: 0 | Subjects with AE leading to discontinuation: Abdominal discomfort [1]: 0 | Subjects with AE leading to discontinuation: Abdominal pain [1]: 0 | Subjects with AE leading to discontinuation: Alanine aminotransferase increased [1]: 0 | Subjects with AE leading to discontinuation: Aspartate aminotransferase increased [1]: 0 | Subjects with AE leading to discontinuation: Asthenia [1]: 0 | Subjects with AE leading to discontinuation: Chills [1]: 0 | Subjects with AE leading to discontinuation: Ear and labyrinth disorders [1]: 0 | Subjects with AE leading to discontinuation: Gamma-glutamyltransferase increased [1]: 0 | Subjects with AE leading to discontinuation: Gastrointestinal disorders [1]: 0 | Subjects with AE leading to discontinuation: General disorders and administration site conditions [1]: 0 | Subjects with AE leading to discontinuation: Headache [1]: 0 | Subjects with AE leading to discontinuation: Insomnia [1]: 0 | Subjects with AE leading to discontinuation: Investigations [1]: 0 | Subjects with AE leading to discontinuation: Nausea [1]: 0 | Subjects with AE leading to discontinuation: Nervous system disorders [1]: 0 | Subjects with AE leading to discontinuation: Proctalgia [1]: 0 | Subjects with AE leading to discontinuation: Psoriasis [1]: 0 | Subjects with AE leading to discontinuation: Psychiatric disorders [1]: 0 | Subjects with AE leading to discontinuation: Skin and subcutaneous tissue disorders [1]: 0 | Subjects with AE leading to discontinuation: Suicide attempt [1]: 0 | Subjects with AE leading to discontinuation: Transaminases increased [1]: 0 | Subjects with AE leading to discontinuation: Vertigo [1]: 0 | Subjects with AE leading to discontinuation: Vomiting [1]: 0 | Subjects with AE leading to discontinuation: Weight increased [1]: 0 | Subjects with treatment-emergent AE: Cough [1]: 0 | Subjects with treatment-emergent AE: Headache [1]: 0 | Subjects with treatment-emergent AE: Nasopharyngitis [1]: 9 | Subjects with treatment-emergent serious AE: COVID-19 [1]: 0 | Subjects with treatment-emergent serious AE: Cardiac disorders [1]: 0 | Subjects with treatment-emergent serious AE: Coronary artery disease [1]: 0 | Subjects with treatment-emergent serious AE: Diverticulitis [1]: 0 | Subjects with treatment-emergent serious AE: Foot deformity [1]: 0 | Subjects with treatment-emergent serious AE: General disorders and administration site conditions [1]: 0 | Subjects with treatment-emergent serious AE: Infected cyst [1]: 0 | Subjects with treatment-emergent serious AE: Infections and infestations [1]: 0 | Subjects with treatment-emergent serious AE: Injury, poisoning and procedural complications [1]: 0 | Subjects with treatment-emergent serious AE: Intervertebral disc protrusion [1]: 0 | Subjects with treatment-emergent serious AE: Ligament injury [1]: 0 | Subjects with treatment-emergent serious AE: Musculoskeletal and connective tissue disorders [1]: 0 | Subjects with treatment-emergent serious AE: Neoplasms benign, malignant and unspecified (incl cysts and polyps) [1]: 0 | Subjects with treatment-emergent serious AE: Non-cardiac chest pain [1]: 0 | Subjects with treatment-emergent serious AE: Psychiatric disorders [1]: 0 | Subjects with treatment-emergent serious AE: Respiratory, thoracic and mediastinal disorders [1]: 0 | Subjects with treatment-emergent serious AE: Suicide attempt [1]: 0 | Subjects with treatment-emergent serious AE: Tonsillar hypertrophy [1]: 0 | Subjects with treatment-emergent serious AE: Uterine leiomyoma [1]: 0 | Subjects with treatment-emergent serious AE: Ventricular dysfunction [1]: 0 | Number of subjects with treatment-emergent AE: Cholelithiasis [2]: 0 | Number of subjects with treatment-emergent AE: Ear and labyrinth disorders [2]: 0 | Number of subjects with treatment-emergent AE: Endocrine disorders [2]: 0 | Number of subjects with treatment-emergent AE: Eye disorders [2]: 2 | Number of subjects with treatment-emergent AE: Eyelid skin dryness [2]: 0 | Number of subjects with treatment-emergent AE: Goiter [2]: 0 | Number of subjects with treatment-emergent AE: Hepatobiliary disorders [2]: 1 | Number of subjects with treatment-emergent AE: Hypertransaminasemia [2]: 1 | Number of subjects with treatment-emergent AE: Immune system disorders [2]: 0 | Number of subjects with treatment-emergent AE: Insomnia [2]: 0 | Number of subjects with treatment-emergent AE: Ocular cyst [2]: 1 | Number of subjects with treatment-emergent AE: Psychiatric disorders [2]: 0 | Number of subjects with treatment-emergent AE: Retinal vein occlusion [2]: 1 | Number of subjects with treatment-emergent AE: Seasonal allergy [2]: 0 | Number of subjects with treatment-emergent AE: Vertigo [2]: 0 | Subjects with treatment-emergent AE: Eye disorders (%) [2]: (5.7%) | Subjects with treatment-emergent AE: Hepatobiliary disorders (%) [2]: (2.9%) | Subjects with treatment-emergent AE: Hypertransaminasemia (%) [2]: (2.9%) | Subjects with treatment-emergent AE: Ocular cyst (%) [2]: (2.9%) | Subjects with treatment-emergent AE: Retinal vein occlusion (%) [2]: (2.9%) | Subjects who discontinued study agent because of 1 or more adverse events [3]: 0 | Subjects with 1 or more Serious Infections and infestations [3]: 0 | Subjects with adverse event: Headache [3]: 0 | Subjects with adverse event: Meniscus injury [3]: 0 | Subjects with adverse event: Nasopharyngitis [3]: 9 | Subjects with adverse event: Sinusitis [3]: 0 | Subjects with adverse event: Vomiting [3]: 0 | Subjects with serious adverse event: Coronary artery disease [3]: 0 | Subjects with serious adverse event: Diverticulitis [3]: 0 | Subjects with serious adverse event: Foot deformity [3]: 0 | Subjects with serious adverse event: Intervertebral disc protrusion [3]: 0 | Subjects with serious adverse event: Ligament injury [3]: 0 | Subjects with serious adverse event: Non-cardiac chest pain [3]: 0 | Subjects with serious adverse event: Tonsillar hypertrophy [3]: 0 | Subjects with serious adverse event: Uterine leiomyoma [3]: 0
